Laboratory results reported in patent US9796674B2, “Benzyl urea derivatives for activating TGF-beta signaling” (THE BOARD OF TRUSTEES OF THE LELAND STANFORD JUNIOR …, priority 2013, dated 2017).
Entries after “also recorded” stand apart in the source; their conditions may differ. Read-outs that look alike come from different tables or passages of the source.

Legend:
[1] = system: GFAP-luc mice; assay: Kainic acid lesion in GFAP-luc mice, bioluminescence; format: in vivo, mouse; conditions: kainic acid 20 mg/kg
Description: FIGS. 5A-5B show GFAP-luc mice (2-month-old) lesioned with kainic acid (20 mg/kg). Bioluminescence was recorded longitudinally at indicated time points in each mouse. Representative images showing increased bioluminescence signals over the brain after kainic acid injury (left panel) and the reduction by SRI-011381 (381) treatment (right panel) (FIG. 5A). Bioluminescence is expressed as fold induction over baseline, which was measured 1 day before kainic acid administration for each mouse (FIG. 5B). Bars are mean±SEM (n=4-7 mice). The mice were sacrificed 5 days later. Brains were removed, fixed with paraformaldehyde, sectioned and stained with cresyl violet, or immunohistochemical methods. […] Bars are mean±SEM (n=4-7 mice/group) and the asterisk signifies P<0.05 by unpaired t test.

[2] = system: mouse J774A.1 macrophages; assay: Fibrillar Aβ clearance by J774A.1 macrophages; format: cell-based; conditions: 24 h, 2, 5, or 10 μM
Description: SRI-011381 promotes Aβ clearance in cell culture: TGF-β1 promotes Aβ clearance in a microglia cell line. To test whether SRI-011381 has similar properties, mouse J774A.1 macrophages and human macrophages differentiated from THP-1 monocytic cell lines were treated with fibrillar Aβ in the absence or presence of compound (2, 5, or 10 μM) for 24 h. Conditioned medium was harvested and the remaining Aβ that was not phagocytosed by macrophages was quantified by Aβ ELISA.
FIGS. 4A and 4B present data from experiments in which human macrophages differentiated from THP-1 monocytic cell lines and mouse J774A.1 macrophages were incubated with fibrillar Aβ in the absence or presence of compound (2 or 5 μM) for 24 h. Conditioned medium was harvested and the remaining Aβ was quantified by Aβ ELISA. The collected medium (FIGS. 4C-4D) was added to N2A-APP-Swe cells (mouse Neuro-2A neuroblastoma cells stably expressing Swedish APP695) and incubated for 24 h. Neurotoxicity was quantified by an MTS Assay.
Mouse J774A.1 macrophages and human macrophages that were differentiated from THP-1 monocytic cell lines were treated with fibrillar Aβ42 in the absence or presence of SRI-011382 or its derivative compounds (2, 5, or 10 μM) for 24 h. Conditioned medium was harvested and the remaining Aβ42 that was not phagocytosed by macrophages was quantified by Aβ42 ELISA kit (Invitrogen). […]

[3] = Single-dose pharmacokinetics in female FVB mice; format: in vivo, mouse; conditions: for Kp at 4 h: read-out: Brain to Plasma concentration ratio at 4 h
Description: Pharmacokinetics of SRI-011381 after single intravenous, intraperitoneal, or oral administration in female FVB mice: The objective of this study was to determine the single-dose pharmacokinetics of SRI-011381 in plasma and brain. Female FVB/NJ mice were administered the test article by intravenous (iv, 10 mg/kg), intraperitoneal (ip, 30 mg/kg), and oral gavage (po, 50 mg/kg) dose routes. The compound was formulated in 10% DMSO:15% Solutol:75% sterile water. Plasma and brain were collected at various time points up to 24 h and analyzed by LC/MS for determination of SRI-011381 levels. FIGS. 7A and 7B summarize SRI-011381 levels in plasma and brain, and Tables 4 and 5 list the results of the pharmacokinetic analysis.

[4] = Repeat dose range finding toxicity study in APP751LonSwe transgenic mice; format: in vivo; conditions: both sexes, APP751LonSwe transgenic, C57Bl/6 background, mouse, in vivo; oral, 3 times per week for 2 weeks; read-out: maximum tolerated dose (MTD)
Description: (§1) Determination of the maximum tolerated dose of SRI-011381 in APP transgenic mice on a C57Bl/6 genetic background: A repeat dose range finding toxicity study was also performed in APP751^LonSwe transgenic mice to select doses for evaluation in the efficacy study. Compound SRI-011381 was dissolved in a vehicle containing 15% solutol and 85% water. The formulated compound was administered orally to APP751^LonSwe transgenic mice at 0 (vehicle only), 10, 30, 60, or 100 mg/kg of body weight 3 times a week for 2 weeks (this is the regimen intended to be used for the preclinical treatment study in these mice). Five mice (3 male and 2 female) were used for each dosage group. The starting ages of the mice ranged from 4.4 to 6.1 months. Serum and whole blood samples were collected at the end of the study and subjected to clinical chemistry and hematology analysis.

[5] = system: APP751LonSwe transgenic mice; assay: as above; format: in vivo; conditions: oral 10, 30, 60, or 100 mg/kg 3 times a week for 2 weeks
Description: as §1

[6] = Cytotoxicity in VERO cells; format: cell-based; conditions: African green monkey, read-out: LC50 (the source's name)
Description: In Vitro Cytotoxicity: The cytotoxicity of SRI-011381 was determined in primary rat hepatocytes and in VERO cells.
Cytotoxicity: In vitro cytotoxicity assays are used to estimate the relative toxicity of test compounds, e.g. a set of chemical analogs prior to efficacy screening. To estimate “basal” toxicity, a cell line such as VERO cells are typically used. Additional factors including drug metabolism can alter the relative toxicity of a compound in vivo. Primary cultures from liver (either laboratory species or human) can be used to assess the relative toxicity of compounds where metabolism may be a factor.

[7] = female, FVB/NJ, mouse, brain, ip, 30 mg/kg
[8] = female, FVB/NJ, mouse, brain, iv, 10 mg/kg
[9] = female, FVB/NJ, mouse, brain, po, 50 mg/kg
[10] = female, FVB/NJ, mouse, plasma, ip, 30 mg/kg
[11] = female, FVB/NJ, mouse, plasma, iv, 10 mg/kg
[12] = female, FVB/NJ, mouse, plasma, po, 50 mg/kg

O=C(NC1CCCCC1)N(Cc1ccccc1)CC1CCNCC1 [SRI-011381, 1-Benzyl-3-cyclohexyl-1-(piperidin-4-ylmethyl)urea]
bioluminescence signals over the brain after kainic acid injury [1]: reduction
fibrillar Aβ clearance [2]: promoted fibrillar Aβ clearance; also recorded: promoted fibrillar Aβ42 clearance
fibrillar Aβ clearance ([2]; listed as SRI-11381): promote fibrillar Aβ42 clearance
Kp ([3]; female, FVB/NJ, mouse, brain, intraperitoneal, time points after about 0.5 h (iv) and about 1.5 h (po and ip), read-out: brain-to-plasma concentration ratio): > 0.5
Cmax [3, 7]: 348 ± 33 ng/mL
Tmax [3, 7]: 15 min
Kp at 4 h [3, 7]: 1.65
Cmax [3, 8]: 231 ± 106 ng/mL
Tmax [3, 8]: 15 min
Kp at 4 h [3, 8]: 12.5
Cmax [3, 9]: 157 ± 16 ng/mL
Tmax [3, 9]: 60 min
Kp at 4 h ([3]; female, FVB/NJ, mouse, brain, po, 50 mg/kg, p.o.): 0.89
Kp ([3]; female, FVB/NJ, mouse, brain/plasma, ip, 30 mg/kg, values at the brain T, read-out: Brain-to-plasma ratio): 0.07
Kp ([3]; female, FVB/NJ, mouse, brain/plasma, iv, 10 mg/kg, values at the brain T, read-out: Brain-to-plasma ratio): 0.28
Kp ([3]; female, FVB/NJ, mouse, brain/plasma, po, 50 mg/kg, values at the brain T, read-out: Brain-to-plasma ratio): 0.19
clearance ([3]; female, FVB/NJ, mouse, plasma, intraperitoneal, extravascular estimates (ip and po) based on F, read-out: Cl (converted)): ~150 mL/min/kg
Vd ([3]; female, FVB/NJ, mouse, plasma, intraperitoneal, extravascular estimates (ip and po) based on F, read-out: apparent volume of distribution V): 8 to 13 L/kg
half-life ([3]; female, FVB/NJ, mouse, plasma, intravenous, intraperitoneal, oral, read-out: elimination half-life): < 60 min
AUC(0-inf) [3, 10]: 4160 ng·h/mL
AUC(0-t) [3, 10]: 4110 ± 214 ng·h/mL
Cmax [3, 10]: 6810 ± 720 ng/mL
Tmax [3, 10]: 4.98 min
half-life ([3]; female, FVB/NJ, mouse, plasma, ip, 30 mg/kg, read-out: t1/2 (converted)): 35.4 min
AUC(0-inf) [3, 11]: 1080 ng·h/mL
AUC(0-t) [3, 11]: 1070 ± 129 ng·h/mL
Cmax [3, 11]: 1170 ± 415 ng/mL
Tmax [3, 11]: 4.98 min
clearance ([3]; female, FVB/NJ, mouse, plasma, iv, 10 mg/kg, read-out: CI (clearance) (converted)): 154 mL/min/kg
half-life ([3]; female, FVB/NJ, mouse, plasma, iv, 10 mg/kg, read-out: t1/2 (converted)): 34.2 min
AUC(0-inf) [3, 12]: 2600 ng·h/mL
AUC(0-t) [3, 12]: 2600 ± 374 ng·h/mL
Cmax [3, 12]: 2950 ± 1240 ng/mL
Tmax [3, 12]: 10 min
bioavailability ([3]; female, FVB/NJ, mouse, plasma, po, 50 mg/kg, plasma, po, 50 mg/kg, read-out: F (oral bioavailability)): ~50%
half-life ([3]; female, FVB/NJ, mouse, plasma, po, 50 mg/kg, read-out: t1/2 (converted)): 58.2 min
AUC(0-t) ([3]; female, FVB/NJ, mouse, brain, ip, 30 mg/kg, AUC from 0.25 to 4 h): 740 ± 32 ng·h/mL
AUC(0-t) ([3]; female, FVB/NJ, mouse, brain, iv, 10 mg/kg, AUC from 0.25 to 4 h): 738 ± 89 ng·h/mL
AUC(0-t) ([3]; female, FVB/NJ, mouse, brain, po, 50 mg/kg, AUC from 0.5 to 4 h): 416 ± 33 ng·h/mL
CI (clearance) ([3]; plasma, ip, 30 mg/kg): 154.3 mL/min/kg
F ([3]; plasma, ip, 30 mg/kg): 128%
V ([3]; plasma, ip, 30 mg/kg): 7.875 L/kg
F ([3]; plasma, iv, 10 mg/kg): 100%
V ([3]; plasma, iv, 10 mg/kg): 7.669 L/kg
V ([3]; plasma, po, 50 mg/kg): 13.012 L/kg
MTD at 2 weeks [4]: > 100 mg/kg
body weight [5]: no significant differences in body weight
clinical chemistry or hematology parameters [5]: no statistically significant changes
CC50 [6]: 167 µM
